Reference: patent EP4778933A1 (Chengdu Hyperway Pharmaceuticals Co., Ltd., priority 2023, dated 2025)
Like-named read-outs stand apart in the source and are kept apart here. Blank lines part the entries; values can stand above or below the compound they belong to.

Test system: KRAS G12D-mediated ERK phosphorylation
Test: Inhibition of KRAS G12D-mediated ERK phosphorylation in AGS cells (in-cell pERK/GAPDH immunofluorescence)
Assay type: cell-based
Protocol: Day 1: AGS cells, SW480 cells, NCI H358 cells, HCT116 cells, and KP2 cells were seeded into 384-well cell culture plates and cultured overnight in a 37°C, 5% CO2 incubator.
Day 2: The compounds were added to the plates using Echo550 and incubated for 3 h in a 37°C, 5% CO2 incubator. Then, cells fixed with paraformaldehyde, permeated with methanol and blocked with a blocking solution were added. Finally, a mixed solution of primary antibodies (rabbit anti pERK, mouse anti GAPDH) was added, and the mixture was incubated overnight at 4°C.
Day 3: The mixed solution of primary antibodies was discarded, and a mixed solution of secondary antibodies (goat anti rabbit 800 CW, goat anti mouse 680 RD) was added. The resulting mixture was incubated at room temperature in the dark. Finally, the cell culture plate was washed with PBST, and then inverted for 1 minute of centrifugation. The fluorescence signal values were read with Odyssey CLx.
ERK phosphorylation was calculated according to the following formula: [formula] • Negative control: DMSO • Positive control: 10 µM Reference • IC50 value was fitted and calculated by XLFit 5.0 using the parametric formula. • Y = Bottom+(Top-Bottom)/(1+10^((LogIC50-X)*HillSlope)) • X: log value of compound concentration. • Y: average value of relative expression of p-ERK between replicate wells.

[1] = Homo sapiens, AGS, 3 h, AGS cells, 3 h incubation, read-out: Inhibitory activity on ERK phosphorylation (IC50) AGS-G12D
[2] = Homo sapiens, AGS, 3 h, read-out: Inhibitory activity on ERK phosphorylation (IC50) AGS-G12D, AGS cells, 3 h incubation
[3] = AGS cells, 3 h incubation, read-out: Inhibitory activity on ERK phosphorylation (IC50) AGS-G12D

SMILES: N#Cc1c(N)sc2c(F)ccc(-c3c(Cl)cc4c(N5CCOCC(O)(CO)C5)nc(OCC56CCCN5C(c5cc(F)c(F)c(F)c5)CC6)nc4c3F)c12 (racemic) [Example 2, 2-amino-4-{6-chloro-8-fluoro-4-[6-hydroxy-6-(hydroxymethyl)-1,4-oxazepan-4-yl]-2-({[3-(3,4,5-trifluorophenyl)-2,3,5,6,7,7a-hexahydro-1H-pyrrolizin-7a-yl]methyl}oxy)quinazolin-7-yl}-7-flu orobenzo[b]thiophene-3-carbonitrile]
IC50 [1]: > 1000 nM

SMILES: CC1=NOC2(CCCN(c3nc(OCC45CCCN4C(c4cc(F)c(F)c(F)c4)CC5)nc4c(F)c(-c5ccc(F)c6sc(N)c(C#N)c56)c(Cl)cc34)CC2)C1 (racemic) [Example 3, 2-amino-4-[6-chloro-8-fluoro-4-(3-methyl-2,8-diaza-1-oxaspiro[4.6]undec-2-en-8-yl)-2-({[3-(3,4,5-trifluorophenyl)-2,3,5,6,7,7a-hexahydro-1H-pyrrolizin-7a-yl]methyl}oxy)quinazolin-7-yl]-7-fl uorobenzo[b]thiophene-3-carbonitrile]
IC50 [1]: > 1000 nM

SMILES: N#Cc1c(N)sc2c(F)ccc(-c3c(Cl)cc4c(N5CCCC(O)(C(F)(F)F)CC5)nc(OCC56CCCC5C(c5cc(F)c(F)c(F)c5)CC6)nc4c3F)c12 (racemic) [Example 5, 2-amino-4-{6-chloro-8-fluoro-4-[4-hydroxy-4-(trifluoromethyl)azepan-1-yl]-2-({[1-(3,4,5-trifluorophenyl)octahydrocyclopenta[1,2-a][5]annulen-3a-yl]methyl}oxy)quinazolin-7-yl}-7-fluorobenzo[b]thiop hene-3-carbonitrile]
IC50 [1]: 313 nM

SMILES: CC1(O)CCCN(c2nc(OCC34CCCN3C(c3cc(F)c(F)c(F)c3)CC4)nc3c(F)c(-c4ccc(F)c5sc(N)c(C#N)c45)c(Cl)cc23)CC1 (racemic) [Example 6, 2-amino-4-[6-chloro-8-fluoro-4-(4-hydroxy-4-methylazepan-1-yl)-2-({[3-(3,4,5-trifluorophenyl)-2,3,5,6,7,7a-hexahydro-1H-pyrrolizin-7a-yl]methyl}oxy)quinazolin-7-yl]-7-fluorobenzo[b]thioph ene-3-carbonitrile]
IC50 [1]: 787 nM

SMILES: N#Cc1c(N)sc2c(F)ccc(-c3c(Cl)cc4c(N5CC6C[C@@H](C5)c5cccc(=O)n5C6)nc(OCC56CCCN5C(c5cc(F)c(F)c(F)c5)CC6)nc4c3F)c12 (mixture of isomers) [Example 7, 2-amino-4-{6-chloro-8-fluoro-4-[(1S)-6-oxo-7,11-diazatricyclo[7.3.1.02,7]trideca-2(3),4-dien-11-yl]-2-({[3-(3,4,5-trifluorophenyl)-2,3,5,6,7,7a-hexahydro-1H-pyrrolizin-7a-yl]methyl}oxy)quinazolin-7-yl}-7-fluorobenzo[b]thiophene-3-carbonitrile]
IC50 (Homo sapiens, AGS cells, 3 h incubation, read-out: Inhibitory activity on ERK phosphorylation (IC50) AGS-G12D): 738 nM

SMILES: N#Cc1c(N)sc2c(F)ccc(-c3c(Cl)cc4c(N5CC6COCC6C5)nc(OCC56CCCN5C(c5cc(F)c(F)c(F)c5)CC6)nc4c3F)c12 (racemic) [Example 8, 4-[4-(3,3a,4,5,6,6a-hexahydro-1H-furano[4,3-c]pyrrolo-5-yl)-6-chloro-8-fluoro-2-({[3-(3,4,5-trifluorophenyl)-2,3,5,6,7,7a-hexahydro-1H-pyrrolizin-7a-yl]methyl}oxy)quinazolin-7-yl]-2-amino-7-fluorobenzo[b]thiophene-3-carbonitrile]
IC50 [2]: > 1000 nM

SMILES: N#Cc1c(N)sc2c(F)ccc(-c3c(Cl)cc4c(N5CCC6(CC5)CC(O)CO6)nc(OCC56CCCN5C(c5cc(F)c(F)c(F)c5)CC6)nc4c3F)c12 (racemic) [Example 14, 8-[7-(2-amino-7-fluorobenzo[b]thiophen-4-yl)-6-chloro-8-fluoro-2-({[3-(3,4,5-trifluorophenyl)-2,3,5,6,7,7a-hexahydro-1H-pyrrolizin-7a-yl]methyl}oxy)quinazolin-4-yl]-8-aza-1-oxaspiro[4.5]de c-3-ol]
IC50 [2]: 758 nM

SMILES: CC1(O)COCCN(c2nc(OCC34CCCN3C(c3cc(F)c(F)c(F)c3)CC4)nc3c(F)c(-c4cccc5sc(N)c(C#N)c45)c(Br)cc23)C1 (single isomer, unassigned) [Example 24, 2-amino-4-[6-bromo-8-fluoro-4-(6-hydroxy-6-methyl-1,4-oxazepan-4-yl)-2-({[3-(3,4,5-trifluoropheny 1)-2,3,5,6,7,7a-hexahydro-1H-pyrrolizin-7a-yl]methyl}oxy)quinazolin-7-yl]benzo[b]thiophene-3-carb onitrile]
IC50 (AGS cells, 3 h incubation): 106 nM

SMILES: CC1(O)COCCN(c2nc(OCC34CCCN3C(c3cc(F)c(F)c(F)c3)CC4)nc3c(F)c(-c4cccc5sc(N)c(C#N)c45)c(Br)cc23)C1 (single isomer, unassigned) [Example 25, 2-amino-4-[6-bromo-8-fluoro-4-(6-hydroxy-6-methyl-1,4-oxazepan-4-yl)-2-({[3-(3,4,5-trifluoropheny 1)-2,3,5,6,7,7a-hexahydro-1H-pyrrolizin-7a-yl]methyl}oxy)quinazolin-7-yl]benzo[b]thiophene-3-carb onitrile]
IC50 (AGS cells, 3 h incubation): > 1000 nM

SMILES: CC1(O)COCCN(c2nc(OCC34CCCN3C(c3cc(F)c(F)c(F)c3)CC4)nc3c(F)c(-c4cccc5sc(N)c(C#N)c45)c(Br)cc23)C1 (single isomer, unassigned) [Example 27, 2-amino-4-[6-bromo-8-fluoro-4-(6-hydroxy-6-methyl-1,4-oxazepan-4-yl)-2-({[3-(3,4,5-trifluoropheny 1)-2,3,5,6,7,7a-hexahydro-1H-pyrrolizin-7a-yl]methyl}oxy)quinazolin-7-yl]benzo[b]thiophene-3-carb onitrile]
IC50 (AGS cells, 3 h incubation): 355 nM

Further lines, results first:

IC50 [1]: > 1000 nM
SMILES: COC1CCN(c2nc(OCC34CCCN3C(c3cc(F)c(F)c(F)c3)CC4)nc3c(F)c(-c4ccc(F)c5sc(N)c(C#N)c45)c(N)cc23)C1 (racemic) [Example 15, 2-amino-4-[6-amino-8-fluoro-4-(3-methoxytetrahydro-1H-pyrrol-1-yl)-2-({[3-(3,4,5-trifluor ophenyl)-2,3,5,6,7,7a-hexahydro-1H-pyrrolizin-7a-yl]methyl}oxy)quinazolin-7-yl]-7-fluorobenzo[b]t hiophene-3-carbonitrile]

IC50 [1]: 380 nM
SMILES: CN(C)C(=O)C1CN(c2nc(OCC34CCCN3C(c3cc(F)c(F)c(F)c3)CC4)nc3c(F)c(-c4ccc(F)c5sc(N)c(C#N)c45)c(Cl)cc23)CCCO1 (racemic) [Example 16, 4-[7-(2-amino-3-cyano-7-fluorobenzo[b]thiophen-4-yl)-6-chloro-8-fluoro-2-({[3-(3,4,5-trifluorophenyl)-2,3,5,6,7,7a-hexahydro-1H-pyrrolizin-7a-yl]methyl}oxy)quinazolin-4-yl]-N,N-dimethyl-1,4-oxazepan-2-carboxamide]

IC50 [3]: > 1000 nM
SMILES: CC1(O)COCCN(c2nc(OCC34CCCN3C(c3cc(F)c(F)c(F)c3)CC4)nc3c(F)c(-c4cccc5sc(N)c(C#N)c45)c(Cl)cc23)C1 (single isomer, unassigned) [Example 19, 2-amino-4-[6-chloro-8-fluoro-4-(6-hydroxy-6-methyl-1,4-oxazepan-4-yl)-2-({[3-(3,4,5-trifluorophenyl)-2,3,5,6,7,7a-hexahydro-1H-pyrrolizin-7a-yl]methyl}oxy)quinazolin-7-yl]benzo[b]thiophene-3-carbonitrile]

IC50 [3]: > 1000 nM
SMILES: CC1(O)COCCN(c2nc(OCC34CCCN3C(c3cc(F)c(F)c(F)c3)CC4)nc3c(F)c(-c4cccc5sc(N)c(C#N)c45)c(Cl)cc23)C1 (single isomer, unassigned) [Example 20, 2-amino-4-[6-chloro-8-fluoro-4-(6-hydroxy-6-methyl-1,4-oxazepan-4-yl)-2-({[3-(3,4,5-trifluorophenyl)-2,3,5,6,7,7a-hexahydro-1H-pyrrolizin-7a-yl]methyl}oxy)quinazolin-7-yl]benzo[b]thiophene-3-carbonitrile]

IC50 [3]: 43 nM
SMILES: CC1(O)COCCN(c2nc(OCC34CCCN3C(c3cc(F)c(F)c(F)c3)CC4)nc3c(F)c(-c4cccc5sc(N)c(C#N)c45)c(Cl)cc23)C1 (single isomer, unassigned) [Example 22, 2-amino-4-[6-chloro-8-fluoro-4-(6-hydroxy-6-methyl-1,4-oxazepan-4-yl)-2-({[3-(3,4,5-trifluorophenyl)-2,3,5,6,7,7a-hexahydro-1H-pyrrolizin-7a-yl]methyl}oxy)quinazolin-7-yl]benzo[b]thiophene-3-carbonitrile]

IC50 [3]: 33 nM
SMILES: CC1(O)COCCN(c2nc(OCC34CCCN3C(c3cc(F)c(F)c(F)c3)CC4)nc3c(F)c(-c4cccc5sc(N)c(C#N)c45)c(I)cc23)C1 (single isomer, unassigned) [Example 29, 2-amino-4-[6-iodo-8-fluoro-4-(6-hydroxy-6-methyl-1,4-oxazepan-4-yl)-2-({[3-(3,4,5-trifluorophenyl)-2,3,5,6,7,7a-hexahydro-1H-pyrrolizin-7a-yl]methyl}oxy)quinazolin-7-yl]benzo[b]thiophene-3-carbonitrile]
